In patent US4348388A, “11-Amino-11-deoxydaunorubicin and analogs” (G.D. Searle & Co., priority 1980, dated 1982):
Converted amounts (≈) assume the structure as drawn. Like-named read-outs stand apart in the source and are kept apart here.

Key:
[1] = tested on: L-1210 leukemia; assay: Antineoplastic activity against L-1210 leukemia (single i.v. dose, survival vs control mice); format: in vivo, BDF1 male mice; conditions: single i.v. dose 24 hours after i.v. implant of 10^5 L-1210 cells; at optimum dose (Adriamycin 33.6, Ex. XII 27, 4-Demethoxydaunorubicin 4.5 μmoles/kg); ten mice per group
Description: The antineoplastic activity of the compounds of this invention was first established against L-1210 leukemia. The relative activities against the L-1210 leukemia and the L cell cytotoxicity was determined and compared to that of adriamycin.
Donor mice were implanted with L-1210 leukemia cells i.p. On the sixth day following implant, the mice were sacrificed. Tumor cells were collected from the peritoneal cavity, suspended in saline solution, and 10^5 cells per mouse were implanted i.v. into BDF1 male mice weighing 18-20 grams. Ten mice per treatment group were employed and the day of implantation considered as day 0. A single dose of test compound was administered by i.v. injection 24 hours following the implant of L-1210 tumor cells. The animals were observed and the survival pattern was compared with that of control mice which received the same tumor implant but were not treated with drug. Results are presented as %ILS (increase in life span over control animals) in Table 3 below.

[2] = tested on: L-cells; assay: L-cell cytotoxicity; format: cell-based; conditions: 48 h
Description: Expotentially growing L-cells were treated with dilutions of Compound XII and adriamycin and ID50 (concentration of compounds giving 50% inhibition of cell growth) measured after 48 hours with the following results.

[3] = background; limits use; cited from earlier work
[4] = tested on: L-1210 leukemias; assay: Activity against L-1210 leukemia by oral or intraperitoneal administration; format: in vivo
[5] = tested on: P-388 leukemias; assay: Activity against P-388 leukemia by oral or intraperitoneal administration; format: in vivo
[6] = administered intraperitoneally, compared with intravenous

SMILES	% ILS (increase in life span over control animals) [1] [%]	Survivors at day 60 [1]	IC50 ([2]; read-out: ID50 (concentration of compounds giving 50% inhibition of cell growth), Ex. 19, exponentially growing L-cells) [µg/mL]	IC50 ([2]; read-out: ID50 (concentration of compounds giving 50% inhibition of cell growth), Ex. 20, exponentially growing L-cells) [µg/mL]	cardiac toxicity [3]	activity against L-1210 leukemia [4, 6]	activity against L-1210 leukemia ([4]; administered orally)	activity against P-388 leukemia [5, 6]	activity against P-388 leukemia ([5]; administered orally)	IC50 ([2]; Ex. 19, exponentially growing L-cells, read-out: ID50 (concentration of compounds giving 50% inhibition of cell growth)) [µg/mL]	IC50 ([2]; Ex. 20, exponentially growing L-cells, read-out: ID50 (concentration of compounds giving 50% inhibition of cell growth)) [µg/mL]
CC(=O)[C@]1(O)Cc2c(O)c3c(c(O)c2[C@@H](O[C@H]2C[C@H](N)[C@H](O)[C@H](C)O2)C1)C(=O)c1ccccc1C3=O [4-Demethoxydaunorubicin]	83	0									
COc1cccc2c1C(=O)c1c(O)c3c(c(O)c1C2=O)C[C@@](O)(C(=O)CO)C[C@@H]3O[C@H]1C[C@H](N)[C@H](O)[C@H](C)O1 [Adriamycin]	100	0	0.063 (≈ 0.116 µM)	0.1 (≈ 0.184 µM)	cardiac toxicity						
CC(=O)[C@]1(O)Cc2c(N)c3c(c(O)c2[C@@H](O[C@H]2C[C@H](N)[C@H](O)[C@H](C)O2)C1)C(=O)c1ccccc1C3=O [Compound XII, cis-9-acetyl-11-amino-7S-[(3-amino-2,3,6-trideoxy-α-L-lyxo-hexopyranosyl)oxy]-7,8,9,10-tetrahydro-6,9-dihydroxy-5,12-naphthacenedione chloride]	96	0				less active	inactive	less active	inactive	0.01	0.015
